Legend:
GL261 cells = assay: Anti-tumor activity in immunocompetent GL261 glioma mouse model; format: in vivo
Description: The anti-tumor activity of Target-5 was assessed in vivo using an immunocompetent glioma mouse model. Three distinct doses of Target-5 were evaluated against Temozolomide, an FDA-approved chemotherapeutic agent, and a vehicle control in C57BL/6 mice.
Specifically, female C57BL/6 mice (Jackson Laboratories) were inoculated with 5×10^6 GL261 cells (mycoplasma tested-negative) with 96% viability and 100% tumor take rate (cell passages prior to plating (#7)).
Target-5 was formulated in 0.9% saline and the mice were treated twice a week with either 5 mg/kg, 7.5 mg/kg, or 10 mg/kg Target-5 by tail vein injection. The dosing volume was adjusted for body weight. Temozolomide was formulated in 10% DMSO in 0.9% sodium chloride and mice were treated twice a week by gavage at a dosage of 12.5 mg/kg. n=10 for each group.

MC38 tumor cells = assay: Anti-tumor activity in MC38 colon cancer mouse model; format: in vivo; conditions: 40 mg/kg intraperitoneally q3 days×4
Description: Specifically, 8- to 12-week-old C57BL/6 female mice (Charles River Laboratories) were inoculated with 5×10^5 MC38 tumor cells in 0% Matrigel subcutaneously in the flank in a volume of 0.1 mL/mouse on Study Day 0. A pair match was performed when the tumors reached an average size of 80-120 mm 3 at which time treatment began.
The dosing volume was adjusted for body weight. Gemcitabine was administered at a dosage of 40 mg/kg and delivered intraperitoneally q3 days×4. Tumor was measured by calipers twice a week. Body weight was measured every day for 5 days and then bi-weekly to the end of the study. (n=10/group). The endpoint of study was when tumor volume reached 1500 mm^3.

Structure (SMILES) | change in body weight (GL261 cells; any treatment group, FIG. 8C) | Mean tumor volume (GL261 cells; day 21, 12.5 mg/kg twice a week by gavage) | tumor volume compared to Target-5 groups (MC38 tumor cells)
Cn1nnc2c(C(N)=O)ncn2c1=O [temozolomide] | no significant change | 302.6 mm^3 | 
Nc1ccn([C@@H]2O[C@H](CO)[C@@H](O)C2(F)F)c(=O)n1 [Gemcitabine] |  |  | appeared to reduce tumor volume more
